This is an account of results in patent US10273235B2, “Compositions and methods for inhibiting β-lactamase” (LegoChem Biosciences, Inc., priority 2015, dated 2019).

Counter-ions that a name gives are not always drawn.

The IC50 is the concentration that inhibits the measured activity by half. Low values mean higher potency, high ones lower potency.

Experiment [1] has as its target KPC-3 β-lactamase (class A) (Klebsiella pneumoniae, UniProt Q9F663, H272Y). As to the kind of experiment: Inhibitory activity against β-lactamases (nitrocefin), KPC-3. It counts as biochemical, K. pneumoniae. As to the method:
(§1) More diluted stocks were prepared as necessary. Enzyme activity was determined by monitoring the change of absorbance at 492 nm using the characteristic molecular extinction coefficient (Δε492=17,400 M^−1 cm^−1) of nitrocefin by a Shimazu UV-1650PC spectrophotometer. The nitrocefin was purchased from OXOID. Kinetic measurements were run at 30° C. in 10 mM MES[2-(N-morpholino)ethanesulfonic acid]buffer (pH 6.8) or 10 mM MES[2-(N-morpholino)ethanesulfonic acid] buffer (pH 6.8), […] BSA and 50 mM sodium bicarbonate. Reactions were performed in 2.5 mL cuvettes with 100 μM nitrocefin and initiated by adding 1.5 nM to 2.5 nM enzyme. The first 180 s of each reaction was used to measure initial rates. Data were evaluated using Microsoft Excel. Concentration dependent inhibition of enzyme was measured using different concentrations of inhibitors resulting from two-fold dilution series. Reaction progress at every concentration of inhibitor was measured in triplicates. IC50 values were calculated using 4-parameter log fits using XL Fit curve fitting software (www.idbs.com) for Excel using the following equation:
(§2) [formula] where y is the remaining enzyme activity (in %) and x is the corresponding concentration. he fitted IC50 parameter is the relative IC50, and is defined as the concentration giving a response half way between the fitted top (B) and bottom (A) of the curve.

In experiment [2] the target is T1, NDM-1 β-lactamase (class B) (Klebsiella pneumoniae, UniProt C7C422).
T1 construct: MICs of bacterial strains used for extraction of enzymes; endogenous in cells; host or cells: bacterial strain carrying NDM-1 (E. coli according to the earlier reading)
As to the kind of experiment: Inhibitory activity against β-lactamases (nitrocefin), NDM-1. It counts as biochemical. The settings on record: 100 μM nitrocefin, 30° C., pH 6.8. As to the method: as §1, §2

For experiment [3], the target named is T2, CMY-10 β-lactamase (class C) (Klebsiella aerogenes, UniProt Q99QC1).
T2 construct: MICs of bacterial strains used for extraction of enzymes; endogenous in cells
As to the kind of experiment: Inhibitory activity against β-lactamases (nitrocefin), CMY-10. It is filed as biochemical. As to the method:
as §1, §2

For experiment [4], the target named is T3, OXA-48 β-lactamase (class D) (Klebsiella pneumoniae, UniProt Q6XEC0).
T3 construct: MICs of bacterial strains used for extraction of enzymes; endogenous in cells; host or cells: bacterial strain carrying OXA-48 (E. coli according to the earlier reading)
As to the kind of experiment: Inhibitory activity against β-lactamases (nitrocefin), OXA-48. It is filed as biochemical. The settings on record: 100 μM nitrocefin, 30° C., pH 6.8. As to the method: as §1, §2

For experiment [5], the system named is K. pneumoniae clinical strains expressing β-lactamases. In words: BLI potentiation MIC, panel of K. pneumoniae clinical strains expressing β-lactamases (isoxazoline vs. isoxazole). It is filed as cell-based. As to conditions: in combination with Meropenem and LCB10-0200; Table 12. As to the method: MIC90 (μg/mL) is the lowest concentration of an antibiotic that will inhibit the visible growth of 90% of microorganisms after incubation as compared with a control group to which the antibiotic is not treated.
MIC values were measured by the broth microdilution method developed by the Clinical and Laboratory Standards Institute (CLSI) (see CLSI M07-A9, Methods for Dilution Antimicrobial Susceptibility Test for Bacteria that Grow Aerobically; Approved Standard-Ninth Edition (2012): CLSI, Villanova, Pa.). The in vitro antibacterial activity was measured with respect to the following 9 clinical isolates: P. aeruginosa (3 strains); K. pneumoniae (6 strains). The in vitro antibacterial activity of selected compounds was measured with respect to the following 15 clinical isolates: K. pneumoniae (15 strains).

KPC-3 β-lactamase (class A), sequence (Q9F663 25-293 H272Y): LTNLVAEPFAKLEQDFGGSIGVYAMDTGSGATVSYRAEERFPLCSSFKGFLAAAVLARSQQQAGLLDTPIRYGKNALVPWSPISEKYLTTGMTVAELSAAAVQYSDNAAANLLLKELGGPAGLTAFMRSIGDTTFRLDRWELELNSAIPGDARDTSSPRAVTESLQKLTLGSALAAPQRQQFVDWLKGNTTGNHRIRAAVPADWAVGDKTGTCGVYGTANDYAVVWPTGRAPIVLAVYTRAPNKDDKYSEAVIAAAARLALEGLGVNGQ
T3 sequence (Q6XEC0 23-265, looked up): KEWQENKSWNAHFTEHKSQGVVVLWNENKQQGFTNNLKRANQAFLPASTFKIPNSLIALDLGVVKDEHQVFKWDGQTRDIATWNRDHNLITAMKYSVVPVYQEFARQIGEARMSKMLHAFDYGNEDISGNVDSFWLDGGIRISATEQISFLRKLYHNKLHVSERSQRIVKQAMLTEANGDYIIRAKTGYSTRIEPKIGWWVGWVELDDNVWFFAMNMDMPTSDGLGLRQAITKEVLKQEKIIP
T1 sequence (C7C422 29-270, looked up): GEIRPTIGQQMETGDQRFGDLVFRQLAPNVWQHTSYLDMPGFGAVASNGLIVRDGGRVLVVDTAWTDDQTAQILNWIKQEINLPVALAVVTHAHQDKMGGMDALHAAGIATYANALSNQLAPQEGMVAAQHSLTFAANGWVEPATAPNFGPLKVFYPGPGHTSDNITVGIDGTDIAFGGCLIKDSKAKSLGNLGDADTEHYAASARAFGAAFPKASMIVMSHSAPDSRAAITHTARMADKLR
T2 sequence (Q99QC1 24-382): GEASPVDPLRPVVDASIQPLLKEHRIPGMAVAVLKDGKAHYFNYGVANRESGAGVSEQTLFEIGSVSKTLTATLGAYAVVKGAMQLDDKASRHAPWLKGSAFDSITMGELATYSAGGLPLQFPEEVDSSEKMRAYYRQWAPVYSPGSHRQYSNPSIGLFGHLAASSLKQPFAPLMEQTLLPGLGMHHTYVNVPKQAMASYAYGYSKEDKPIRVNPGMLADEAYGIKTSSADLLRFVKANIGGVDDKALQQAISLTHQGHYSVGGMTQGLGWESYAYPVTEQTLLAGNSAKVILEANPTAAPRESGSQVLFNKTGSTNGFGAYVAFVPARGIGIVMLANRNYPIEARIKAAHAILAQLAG

For the molecule `NC[C@H]1CC([C@@H]2CC[C@@H]3CN2C(=O)N3OS(=O)(=O)O)=NO1` [Example 15, [(2S)-2-[(5R)-5-(aminomethyl)-4,5-dihydroisoxazol-3-yl]-7-oxo-1,6-diazabicyclo[3.2.1]octan-6-yl] hydrogen sulfate], the IC50 in experiment [1] worked out at 3.03 µM; in experiment [2], 1650 µM; in experiment [3] it was 0.123 µM; in experiment [4], 6.42 µM. Also, the “coverage on various β-lactamases compared with Cubist-1” value in experiment [5] was “much broader coverage on various β-lactamases than Cubist-1”.
